Test results taken from DBAASP.
In brackets after ≈: the same amount, converted by molar mass. Blank lines part the entries; values can stand above or below the molecule they belong to.

Experiments:
Test in all cases: ≥ marks a high value that may be exact or a test limit, other limits are often not marked, values filed in µg/mL are converted to µM
[1] = system: Pseudomonas aeruginosa CMCCB 10104
[2] = system: Candida albicans ATCC 90028
[3] = system: Candida albicans ATCC 2002
[4] = system: Escherichia coli CIB 84492
[5] = system: Staphylococcus aureus ATCC 25923
[6] = system: Escherichia coli ATCC 25922
[7] = system: Staphylococcus aureus CIB 85462
[8] = system: Staphylococcus aureus NCTC 8325
[9] = system: Staphylococcus epidermidis ATCC 12228
[10] = system: Micrococcus luteus ATCC 9341
[11] = system: Candida albicans ATCC 36232
[12] = system: Shigella flexneri ATCC 203
Staphylococcus aureus = system: Staphylococcus aureus
[13] = system: Staphylococcus aureus ATCC 6538
[14] = system: Pseudomonas aeruginosa ATCC 9027
[15] = system: Bacillus subtilis ATCC 6633
[16] = system: Corynebacterium diphtheriae ATCC 8024
[17] = system: Escherichia coli ATCC 2592
[18] = system: Escherichia coli NCTC 10418
[19] = system: Staphylococcus aureus NCTC 12981
[20] = system: Pseudomonas aeruginosa H1001
[21] = system: Staphylococcus aureus T7/20
[22] = system: Pseudomonas aeruginosa ATCC 27853
[23] = system: Enterococcus faecalis ATCC 29212
[24] = system: Klebsiella pneumoniae KK3 9904
[25] = system: Enterobacter cloacae HNTCC 53001
[26] = system: Staphylococcus epidermidis RP62A
Micrococcus luteus A270 = system: Micrococcus luteus A270
Escherichia coli = system: Escherichia coli
[27] = system: Salmonella enterica subsp. enterica serovar Enteritidis
Listeria innocua = system: Listeria innocua
[28] = system: Psychrobacter faecalis X29
[29] = system: Bacillus licheniformis X39
[30] = system: Staphylococcus carnosus KHS
[31] = system: Rhodococcus rhodochrous X15
[32] = system: Staphylococcus aureus ATCC 2592

Compound: CC[C@H](C)[C@H](NC(=O)[C@H](CC(C)C)NC(=O)[C@H](CCCCN)NC(=O)[C@H](C)NC(=O)[C@H](C)NC(=O)CNC(=O)[C@H](CCCCN)NC(=O)[C@@H](NC(=O)[C@H](CC(C)C)NC(=O)[C@@H](NC(=O)[C@H](Cc1ccccc1)NC(=O)[C@H](CC(C)C)NC(=O)CN)[C@@H](C)O)[C@@H](C)CC)C(=O)NCC(=O)N[C@@H](CCCCN)C(=O)N[C@H](C(=O)N[C@H](C(=O)N[C@@H](C)C(=O)N[C@@H](CCCCN)C(=O)N[C@@H](CCC(=O)O)C(=O)N[C@@H](C)C(=O)NCC(=O)N[C@@H](CCCCN)C(=O)N[C@H](C(=O)NCC(=O)N[C@@H](CC(C)C)C(=O)N[C@@H](CCC(=O)O)C(=O)N[C@@H](CC(C)C)C(=O)N[C@@H](CCSC)C(=O)N[C@@H](C)C(=O)N[C@H]1CSSC[C@@H](C(=O)O)NC(=O)[C@H](CCC(N)=O)NC(=O)[C@H](CC(N)=O)NC(=O)[C@H]([C@@H](C)O)NC(=O)[C@H]([C@@H](C)CC)NC(=O)[C@H](CCCCN)NC1=O)[C@@H](C)O)C(C)C)[C@@H](C)O [GLFTLIKGAAKLIGKTVAKEAGKTGLELMACKITNQC]
MIC [1]: 2.67 µM (≈ 10.2 µg/mL)
MIC [2]: ≥ 100 µM
MIC [3]: 1.33 µM (≈ 5.1 µg/mL)
MIC [4]: ≥ 33.5 µM
MIC [5]: 1.33 µM (≈ 5.1 µg/mL)
MIC [6]: 2.67 µM (≈ 10.2 µg/mL)
MIC [7]: 8.37 µM (≈ 32 µg/mL)
MIC [8]: ≥ 50 µM

Compound: NC(=O)[C@H](Cc1ccccc1)NC(=O)[C@H](CCCN=C(N)N)NC(=O)[C@H](Cc1ccccc1)NC(=O)[C@H](CCCN=C(N)N)NC(=O)[C@@H](N)Cc1ccccc1 [FRFRF]
MIC [18]: ≥ 166 µM
MIC [19]: ≥ 166 µM

Compound: CC[C@H](C)[C@H](NC(=O)[C@H](CO)NC(=O)[C@H](CC(C)C)NC(=O)[C@@H](N)Cc1ccccc1)C(=O)N[C@H](C(=O)N[C@@H](C)C(=O)N[C@@H](CCCCN)C(=O)N[C@H](C(=O)N[C@@H](CC(C)C)C(=O)NCC(=O)N[C@@H](CO)C(=O)N[C@@H](CC(C)C)C(=O)N[C@@H](Cc1ccccc1)C(N)=O)C(C)C)[C@@H](C)CC [FLSIIAKVLGSLF]
MIC [21]: 10 µM (≈ 14.1 µg/mL)
MIC [22]: > 160 µM
MIC [2]: ≥ 160 µM
MIC [23]: 20 µM (≈ 28.1 µg/mL)
MIC [24]: ≥ 160 µM
MIC [25]: ≥ 160 µM
MIC [26]: 5 µM (≈ 7.03 µg/mL)
MIC [6]: > 160 µM
MIC [8]: 5 µM (≈ 7.03 µg/mL)

Compound: CC[C@H](C)[C@H](NC(=O)CN)C(=O)N[C@@H](Cc1ccccc1)C(=O)N[C@@H](CO)C(=O)N[C@@H](CC(C)C)C(=O)N[C@@H](Cc1ccccc1)C(=O)N[C@@H](CCCCN)C(=O)N[C@@H](C)C(=O)NCC(=O)N[C@@H](C)C(=O)N[C@@H](CCCCN)C(=O)N[C@@H](Cc1ccccc1)C(=O)N[C@@H](Cc1ccccc1)C(=O)NCC(=O)N[C@@H](CCCCN)C(=O)N[C@@H](Cc1cnc[nH]1)C(=O)N[C@@H](CC(C)C)C(=O)N[C@@H](CC(C)C)C(=O)N[C@@H](CCCCN)C(=O)N[C@@H](CCC(N)=O)C(=O)N[C@@H](C)C(=O)NCC(=O)N[C@@H](CCCCN)C(=O)N[C@@H](C)C(=O)NCC(=O)N[C@@H](C)C(=O)N[C@@H](CCC(=O)O)C(=O)N[C@@H](Cc1cnc[nH]1)C(=O)N[C@@H](CC(C)C)C(=O)N[C@@H](C)C(=O)N[C@H]1CSSC[C@@H](C(=O)O)NC(=O)[C@H](CCC(N)=O)NC(=O)[C@H](CC(N)=O)NC(=O)[C@H]([C@@H](C)O)NC(=O)[C@H](C)NC(=O)[C@H](CCCCN)NC1=O [GIFSLFKAGAKFFGKHLLKQAGKAGAEHLACKATNQC]
MIC [28]: 1.6 µM (≈ 6.22 µg/mL)
MIC [29]: 3.2 µM (≈ 12.4 µg/mL)
MIC [30]: 3.2 µM (≈ 12.4 µg/mL)
MIC [31]: 0.8 µM (≈ 3.11 µg/mL)
MIC [32]: 1.6 µM (≈ 6.22 µg/mL)

Compound: CC(C)C[C@H](NC(=O)[C@H](CS)NC(=O)[C@H](Cc1cnc[nH]1)NC(=O)[C@H](C)NC(=O)[C@H](C)NC(=O)[C@H](CS)NC(=O)[C@H](C)NC(=O)[C@H](C)NC(=O)[C@H](CC(=O)O)NC(=O)[C@@H](N)CC(N)=O)C(=O)N[C@@H](Cc1ccccc1)C(=O)N[C@@H](CCCN=C(N)N)C(=O)NCC(=O)N[C@@H](CCCN=C(N)N)C(=O)N[C@@H](CO)C(=O)NCC(=O)NCC(N)=O [NDAACAAHCLFRGRSGG]
MIC [9]: > 58.6 µM
MIC [10]: ≥ 58.6 µM
MIC [11]: ≥ 58.6 µM
MIC [12]: ≥ 58.6 µM
MIC (Staphylococcus aureus): > 58.6 µM
MIC [13]: > 58.6 µM
MIC [14]: > 58.6 µM
MIC [15]: ≥ 58.6 µM
MIC [16]: ≥ 58.6 µM
MIC [17]: ≥ 58.6 µM

Next, values leading:

MIC [9]: > 87.4 µM
MIC [10]: ≥ 87.4 µM
MIC [11]: ≥ 87.4 µM
MIC [12]: ≥ 87.4 µM
MIC (Staphylococcus aureus): > 87.4 µM
MIC [13]: > 87.4 µM
MIC [14]: > 87.4 µM
MIC [15]: ≥ 87.4 µM
MIC [16]: ≥ 87.4 µM
MIC [17]: ≥ 87.4 µM
Compound: CC(C)[C@H](NC(=O)[C@H](CS)NC(=O)[C@@H](NC(=O)[C@H](CCCN=C(N)N)NC(=O)[C@H](CCCCN)NC(=O)CNC(=O)[C@H](CC(N)=O)NC(=O)[C@H](CS)NC(=O)[C@@H](N)Cc1ccc(O)cc1)C(C)C)C(=O)N[C@@H](CS)C(N)=O [YCNGKRVCVC]

MIC [10]: 3.1 µM (≈ 3.36 µg/mL)
MIC [20]: ≥ 231 µM
Compound: NC(=O)[C@H](CCCN=C(N)N)NC(=O)[C@H](CCCN=C(N)N)NC(=O)[C@H](Cc1c[nH]c2ccccc12)NC(=O)[C@@H]1CCCN1C(=O)[C@H](Cc1c[nH]c2ccccc12)NC(=O)[C@H](Cc1c[nH]c2ccccc12)NC(=O)[C@@H]1CCCN1 [PWWPWRR]

MIC [20]: 1.47 µM (≈ 2 µg/mL)
Compound: CC[C@H](C)[C@H](NC(=O)[C@H](CCCN=C(N)N)NC(=O)[C@H](Cc1ccc(O)cc1)NC(=O)[C@H](Cc1c[nH]c2ccccc12)NC(=O)[C@H](CCCN=C(N)N)NC(=O)[C@@H](NC(=O)[C@@H](N)CCCN=C(N)N)C(C)C)C(=O)N[C@@H](Cc1ccccc1)C(=O)N[C@@H](Cc1ccc(O)cc1)C(N)=O [RVRWYRIFY]

MIC [18]: ≥ 104 µM
MIC [19]: ≥ 104 µM
Compound: CC(C)C[C@H](NC(=O)[C@H](CCCN=C(N)N)NC(=O)[C@@H]1CCCN1C(=O)[C@H](CCCN=C(N)N)NC(=O)[C@H](CCCN=C(N)N)NC(=O)[C@@H]1CCCN1C(=O)[C@@H](N)CCCN=C(N)N)C(=O)N1CCC[C@H]1C(=O)N[C@@H](Cc1c[nH]c2ccccc12)C(N)=O [RPRRPRLPW]

MIC (Micrococcus luteus A270): 1 µM (≈ 1.24 µg/mL)
MIC (Escherichia coli): 9 µM (≈ 11.1 µg/mL)
MIC [27]: 9 µM (≈ 11.1 µg/mL)
MIC (Listeria innocua): 1 µM (≈ 1.24 µg/mL)
Compound: C[C@@H](O)[C@H](NC(=O)[C@H](CCCCN)NC(=O)[C@@H](NC(=O)[C@@H](NC(=O)[C@@H]1CCCN1)[C@@H](C)O)[C@@H](C)O)C(=O)N[C@@H](Cc1ccc(O)cc1)C(=O)N[C@@H](Cc1ccccc1)C(=O)N1CCC[C@H]1C(=O)N[C@@H](Cc1cnc[nH]1)C(=O)N[C@@H](Cc1ccccc1)C(=O)O [PTTKTYFPHF]
